According to PMC8557474, “Reliability of the AR-CALUX®In Vitro Method Used to Detect Chemicals with (Anti)Androgen Activity: Results of an International Ring Trial” (Toxicological Sciences, 2021):
Converted amounts (≈) assume the structure as drawn.

Experiments:
[1] = Solubility testing (visual inspection, centrifugation, microscopy)
Experimental: It details the cell cultivation and seeding procedure, the preparation of the reference, control and test chemicals, the procedure for agonist testing and antagonist testing, prescreen runs, and comprehensive runs, as well as data analysis and data interpretation. This SOP also includes references to the SOPs for solubility testing and cytotoxicity testing. […] Solubility was tested both in the solvent and in media under similar circumstances as would be required during the (ant)agonist testing. The initial concentration to be tested was prescribed at 50 mg/ml. Starting from the highest soluble concentration, cytotoxicity was determined with an LDH assay. Visual checking of cytotoxicity in all wells of the plate was however also required for each run.
This included an investigation by heating, centrifugation, microscopy, and visual checking. […] For the purpose of the validation study, the labs were requested to start from 50 mg/ml as the maximal stock concentration to be tested.

[2] = target: T1, human androgen receptor (hAR) (Homo sapiens, UniProt P10275); assay: cell-based; type: cell-based
T1 construct: host or cells: U2-OS human osteosarcoma cells (ATCC HTB 96), stably transfected (AR-CALUX cell line)
T1 sequence (P10275 1-920): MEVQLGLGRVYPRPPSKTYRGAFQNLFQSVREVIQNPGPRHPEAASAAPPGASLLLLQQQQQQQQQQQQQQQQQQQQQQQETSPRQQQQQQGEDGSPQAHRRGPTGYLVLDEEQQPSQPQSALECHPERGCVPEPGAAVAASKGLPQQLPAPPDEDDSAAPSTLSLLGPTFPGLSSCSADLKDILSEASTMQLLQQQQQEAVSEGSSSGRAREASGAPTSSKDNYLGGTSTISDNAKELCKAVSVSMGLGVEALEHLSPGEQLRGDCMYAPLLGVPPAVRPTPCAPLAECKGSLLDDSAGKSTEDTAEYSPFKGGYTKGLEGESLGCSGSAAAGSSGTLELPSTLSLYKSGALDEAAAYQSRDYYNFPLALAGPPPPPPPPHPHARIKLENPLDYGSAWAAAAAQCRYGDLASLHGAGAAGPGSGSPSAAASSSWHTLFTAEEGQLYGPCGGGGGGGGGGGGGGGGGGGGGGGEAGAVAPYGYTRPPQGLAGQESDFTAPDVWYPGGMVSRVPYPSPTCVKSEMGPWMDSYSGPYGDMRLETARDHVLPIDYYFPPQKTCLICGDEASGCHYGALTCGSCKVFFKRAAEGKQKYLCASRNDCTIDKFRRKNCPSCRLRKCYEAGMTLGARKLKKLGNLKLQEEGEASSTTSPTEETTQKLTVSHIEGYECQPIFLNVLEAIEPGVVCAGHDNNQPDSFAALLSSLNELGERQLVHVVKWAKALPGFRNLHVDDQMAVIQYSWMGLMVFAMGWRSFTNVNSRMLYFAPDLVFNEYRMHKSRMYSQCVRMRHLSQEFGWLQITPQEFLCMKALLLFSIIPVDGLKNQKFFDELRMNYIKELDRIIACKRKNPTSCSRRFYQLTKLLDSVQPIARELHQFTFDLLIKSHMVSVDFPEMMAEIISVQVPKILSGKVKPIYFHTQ
Text: (§1) The AR-CALUX® cell line was created by BioDetection Systems (BDS). It can be purchased from BDS with a license (https://www.biodetectionsystems.com). The human osteosarcoma cell line U2-OS (ATCC HTB 96) was transfected with 2 constructs: pSG5-neo-hAR carrying the cDNA of a human androgen receptor (hAR) under a constitutive promoter, and, a luciferase reporter gene which is preceded by a triple tandem of AREs in front of a TATA box (3x ARE Luc). […] The AR-CALUX® cell line was obtained from the test method developer BDS. EURL ECVAM prepared a master cell bank and a large working cell bank which were tested for the absence of mycoplasma, bacteria, fungi, and yeast and for the absence of Hepatitis B and C and HIV. In addition, to verifying the authenticity of the cell line, Short Tandem Repeat (STR) profiling was carried out to confirm the test system to be U2-OS cells. […] The laboratories were requested, at the end of each part of the study (Parts 1, 2, and 3), to perform a mycoplasma test of their choice. Additional aliquots were sent to EURL ECVAM for a reanalysis of authenticity.
(§2) Subsequently, the test chemical was assessed with a prescreen run (dilution steps of 10) and simultaneously with the quantitative cytotoxicity test to determine (1) cytotoxic concentrations, (2) the response, and (3) the appropriate dose range to be tested. […] The cytotoxicity test was performed once more. Test chemicals were diluted in media and consisted of 8 serial dilutions. Each dilution was tested in triplicate.
(§3) Each experiment (run) was comprised of a maximum of 6 plates. The first plate would contain 8 serial dilutions of the reference chemical DHT (for agonism) or Flutamide (for antagonism), while the positive and negative controls were added at fixed concentrations. In addition, a solvent control was added (medium without the chemical but with DMSO 0.1%).
A. Positive when the relative induction (Yc) of the test item is ≥ 10% (REF RPC10) for two or more consecutive concentrations.

[3] = target: T1, human androgen receptor (hAR); assay: AR-CALUX antagonist assay (medium spiked with DHT at EC50); type: cell-based
Text: as §1, §2, §3
For the antagonist assay, the medium was supplemented with DHT at EC50 concentration (standard assay). […] Each antagonist assay was accompanied by a specificity control test carried out on the same plate.
A. Positive (competitive antagonist) when the relative induction (Yc) of the test item is ≤ 80% (REF RPC80) for two or more consecutive concentrations and […]

[4] = DMSO, Lab 1, highest tested 50 mg/ml
[5] = DMSO, Lab 2, highest tested 50 mg/ml
[6] = DMSO, Lab 3, highest tested 50 mg/ml
[7] = DMSO, Lab 4, highest tested 50 mg/ml
[8] = DMSO, organic solvent or mixture, thermodynamic from solid, Solubility in DMSO, Lab 1, DMSO, Lab 1, highest tested 50 mg/ml
[9] = DMSO, organic solvent or mixture, thermodynamic from solid, Solubility in DMSO, Lab 2, DMSO, Lab 2, highest tested 50 mg/ml
[10] = DMSO, organic solvent or mixture, thermodynamic from solid, Solubility in DMSO, Lab 3, DMSO, Lab 3, highest tested 50 mg/ml
[11] = DMSO, organic solvent or mixture, thermodynamic from solid, Solubility in DMSO, Lab 4, DMSO, Lab 4, highest tested 50 mg/ml
[12] = assay medium, aqueous buffer, kinetic from dmso stock, Solubility in medium, Lab 1, assay medium, Lab 1
[13] = assay medium, aqueous buffer, kinetic from dmso stock, Solubility in medium, Lab 2, assay medium, Lab 2
[14] = assay medium, aqueous buffer, kinetic from dmso stock, Solubility in medium, Lab 3, assay medium, Lab 3
[15] = assay medium, aqueous buffer, kinetic from dmso stock, Solubility in medium, Lab 4, assay medium, Lab 4
[16] = aqueous buffer, kinetic from dmso stock, Solubility in medium, Lab 1, assay medium, Lab 1
[17] = aqueous buffer, kinetic from dmso stock, Solubility in medium, Lab 2, assay medium, Lab 2
[18] = aqueous buffer, kinetic from dmso stock, Solubility in medium, Lab 3, assay medium, Lab 3
[19] = aqueous buffer, kinetic from dmso stock, Solubility in medium, Lab 4, assay medium, Lab 4
[20] = organic solvent or mixture, thermodynamic from solid, Solubility in DMSO, Lab 1, DMSO, Lab 1, highest tested 50 mg/ml
[21] = organic solvent or mixture, thermodynamic from solid, Solubility in DMSO, Lab 2, DMSO, Lab 2, highest tested 50 mg/ml
[22] = organic solvent or mixture, thermodynamic from solid, Solubility in DMSO, Lab 3, DMSO, Lab 3, highest tested 50 mg/ml
[23] = organic solvent or mixture, thermodynamic from solid, Solubility in DMSO, Lab 4, DMSO, Lab 4, highest tested 50 mg/ml

Row | SMILES | solubility [1, 8] [µg/mL] | solubility [1, 9] [µg/mL] | solubility [1, 10] [µg/mL] | solubility [1, 11] [µg/mL] | solubility [1, 12] [µg/mL] | solubility [1, 13] [µg/mL] | solubility [1, 14] [µg/mL] | solubility [1, 15] [µg/mL] | solubility [1, 16] [µg/mL] | solubility [1, 17] [µg/mL] | solubility [1, 18] [µg/mL] | solubility [1, 19] [µg/mL] | solubility [1, 20] [µg/mL] | solubility [1, 21] [µg/mL] | solubility [1, 22] [µg/mL] | solubility [1, 23] [µg/mL] | also measured
1 | C[C@]12CCC(=O)C[C@@H]1CC[C@@H]1[C@@H]2CC[C@@]2(C)[C@H]1CC[C@]2(C)O [Methyldihydrotestosterone] | – | – | – | – | – | – | – | – | – | – | – | – | – | – | – | – | Solubility in DMSO, Lab 1 [1, 4]: 5000 µg/mL (≈ 16400 µM); Solubility in DMSO, Lab 2 [1, 5]: 5000 µg/mL (≈ 16400 µM); Solubility in DMSO, Lab 3 [1, 6]: 15000 µg/mL (≈ 49300 µM); Solubility in DMSO, Lab 4 [1, 7]: 15000 µg/mL (≈ 49300 µM); Solubility in medium, Lab 1 ([1]; assay medium, Lab 1): 5 µg/mL (≈ 16.4 µM); Solubility in medium, Lab 2 ([1]; assay medium, Lab 2): 5 µg/mL (≈ 16.4 µM); Solubility in medium, Lab 3 ([1]; assay medium, Lab 3): 5 µg/mL (≈ 16.4 µM); Solubility in medium, Lab 4 ([1]; assay medium, Lab 4): 5 µg/mL (≈ 16.4 µM)
2 | CC(=O)S[C@@H]1CC2=CC(=O)CC[C@]2(C)[C@H]2CC[C@@]3(C)[C@@H](CC[C@@]34CCC(=O)O4)[C@H]12 [Spironolactone] | 15000 (≈ 36000 µM) | > 50000 | > 50000 | > 50000 | 15 (≈ 36 µM) | > 50 | > 50 | > 50 | – | – | – | – | – | – | – | – | –
3 | CC(=O)O[C@]1(C(C)=O)CC[C@H]2[C@@H]3C[C@H](C)C4=CC(=O)CC[C@]4(C)[C@H]3CC[C@@]21C [Medroxyprogesterone acetate] | 1500 | 15000 | 15000 | 5000 | 1.5 | 5 | 15 | 5 | – | – | – | – | – | – | – | – | –
4 | CCCCOC(=O)c1ccccc1C(=O)OCc1ccccc1 [Benzylbutyl phthalate] | – | – | – | – | – | – | – | – | 1.5 (≈ 4.8 µM) | > 50 | 15 (≈ 48 µM) | 15 (≈ 48 µM) | > 50000 | > 50000 | > 50000 | > 50000 | –
5 | C=CC1(C)OC(=O)N(c2cc(Cl)cc(Cl)c2)C1=O (stereo not drawn) [Vinclozolin] | – | – | – | – | – | – | – | – | 5 (≈ 17.5 µM) | 15 (≈ 52.4 µM) | 15 (≈ 52.4 µM) | 15 (≈ 52.4 µM) | > 50000 | > 50000 | > 50000 | > 50000 | –
6 | CCCCC(CC)COC(=O)c1ccccc1C(=O)OCC(CC)CCCC (stereo not drawn) [Diethylhexyl phthalate] | – | – | – | – | – | – | – | – | – | – | – | – | – | – | – | – | Solubility in DMSO, Lab 1 [1, 4]: 15000 µg/mL (≈ 38400 µM); Solubility in DMSO, Lab 2 [1, 5]: > 50000 µg/mL; Solubility in DMSO, Lab 3 [1, 6]: > 50000 µg/mL; Solubility in DMSO, Lab 4 [1, 7]: > 50000 µg/mL; Solubility in medium, Lab 1 ([1]; assay medium, Lab 1): 15 µg/mL (≈ 38.4 µM); Solubility in medium, Lab 2 ([1]; assay medium, Lab 2): 15 µg/mL (≈ 38.4 µM); Solubility in medium, Lab 3 ([1]; assay medium, Lab 3): > 50 µg/mL; Solubility in medium, Lab 4 ([1]; assay medium, Lab 4): > 50 µg/mL
7 | CC(O)(CS(=O)(=O)c1ccc(F)cc1)C(=O)Nc1ccc(C#N)c(C(F)(F)F)c1 (stereo not drawn) [Bicalutamide] | > 50000 | > 50000 | > 50000 | > 50000 | > 50 | > 50 | > 50 | > 50 | – | – | – | – | – | – | – | – | –
8 | C[C@]12C=CC3=C4CCC(=O)C=C4CC[C@H]3[C@@H]1CC[C@@H]2O [17β-Trenbolone] | – | – | – | – | – | – | – | – | – | – | – | – | – | – | – | – | Agonist classification per run, Lab 1 [2]: P P P; Agonist classification per run, Lab 2 [2]: P P P; Agonist classification per run, Lab 3 [2]: P P P; Agonist classification per run, Lab 4 [2]: P P P; EC50 [2]: 0.245 nM; Antagonist classification per run, Lab 1 [3]: N N N; Antagonist classification per run, Lab 2 [3]: N N N; Antagonist classification per run, Lab 3 [3]: − N N; Antagonist classification per run, Lab 4 [3]: N N N
9 | C[C@]1(O)CC[C@H]2[C@@H]3CCC4=CC(=O)CC[C@]4(C)[C@@]3(F)[C@@H](O)C[C@@]21C [Fluoxymesterone] | – | – | – | – | – | – | – | – | 5 (≈ 14.9 µM) | 5 (≈ 14.9 µM) | 5 (≈ 14.9 µM) | 15 (≈ 44.6 µM) | > 50000 | 5000 (≈ 14900 µM) | > 50000 | > 50000 | –
10 | C[C@]12Cc3c[nH]nc3C[C@@H]1CC[C@@H]1[C@@H]2CC[C@@]2(C)[C@H]1CC[C@]2(C)O [Stanozolol] | – | – | – | – | – | – | – | – | 5 (≈ 15.2 µM) | 5 (≈ 15.2 µM) | 2 (≈ 6.09 µM) | 5 (≈ 15.2 µM) | 5000 (≈ 15200 µM) | > 50000 | 15000 (≈ 45700 µM) | > 50000 | –
